Data on one cell line can be found in the supplement of paper PMC10307832.

Assay in all cases: relative viability (nuclei count vs DMSO), 5 days (fraction); higher = more cells survive
Compound in experiment [1]: CC1=C(C(=NN1)C)CC2=C(C3=C(S2)N(C(=O)N(C3=O)C)CC(C)C)C(=O)N4C[C@@H](CO4)O + Nc1ncn([C@H]2C[C@H](O)[C@@H](CO)O2)c(=O)n1 [Decitabine] (partner 2 µM)
An outline of the steps: (§1)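 Each reported value is a median over duplicate plates. It expresses relative viability: treated-well nuclei count divided by vehicle-well nuclei count. Lung cancer cell lines in 1536-well plates were dosed by pin tool a day after seeding, alone with one drug or with a fixed anchor-drug dose plus five library-drug doses (not always all listed) in √10 steps, and nuclei were counted after 5 days.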

Compound in the experiment “IDH-C35 + Lapatinib”: Cc1ccccc1C(C(=O)NC1CCCCC1)N(C(=O)Cn1ccnc1C)c1cccc(F)c1 [IDH-C35] + CS(=O)(=O)CCNCc1ccc(-c2ccc3ncnc(Nc4ccc(OCc5cccc(F)c5)c(Cl)c4)c3c2)o1 [Lapatinib] (partner 2 µM)
An outline of the steps: as §1

Compound in experiment [2]: CC1=C(C(=NN1)C)CC2=C(C3=C(S2)N(C(=O)N(C3=O)C)CC(C)C)C(=O)N4C[C@@H](CO4)O + O=C(CCCCCCC(=O)Nc1ccccc1)NO [Vorinostat] (partner 1 µM)
An outline of the steps:
as §1

Compound in experiment [3]: CC1=C(C(=NN1)C)CC2=C(C3=C(S2)N(C(=O)N(C3=O)C)CC(C)C)C(=O)N4C[C@@H](CO4)O + Cc1nc(NC(=O)N2CCC[C@H]2C(N)=O)sc1-c1ccnc(C(C)(C)C(F)(F)F)c1 [Alpelisib] (partner 2 µM)
The gist of the method: as §1

Consider UMC-11, for which the relative viability in experiment [1] (first compound 0.0025 µM) is 0.54; in experiment [1] (first compound 0.007906 µM) it was 0.506; in experiment [1] (first compound 0.025 µM), 0.38; in experiment [1] (first compound 0.07906 µM) it was 0.483; in experiment [1] (first compound 0.25 µM), 0.491; with IDH-C35 + Lapatinib (first compound 0.08 µM), 1.01. Besides, the relative viability was determined as 0.976 with IDH-C35 + Lapatinib (first compound 0.253 µM); 0.98 with IDH-C35 + Lapatinib (first compound 0.8 µM); 0.96 with IDH-C35 + Lapatinib (first compound 2.53 µM); 1.09 in the experiment with IDH-C35 + Lapatinib (first compound 8 µM); 0.41 in experiment [2] (first compound 0.0025 µM); 0.429 in experiment [2] (first compound 0.007906 µM). The relative viability in experiment [2] (first compound 0.025 µM) turned out to be 0.396; in experiment [2] (first compound 0.07906 µM) it was 0.464; in experiment [2] (first compound 0.25 µM) it was 0.424; in experiment [3] (first compound 0.0025 µM), 1.03; in experiment [3] (first compound 0.007906 µM), 0.897; in experiment [3] (first compound 0.025 µM), 0.75. The values for the relative viability in experiment [3] (first compound 0.07906 µM) and in experiment [3] (first compound 0.25 µM) were 0.986 and 0.977, respectively.
